Test results: US11498930B2 (BLUERAY THERAPEUTICS (SHANGHAI) CO., LTD., priority 2018, dated 2022)

Key:
SHP2^E76A protein = SHP2^E76A protein (Homo sapiens (Human), UniProt Q06124, E76A); experiment: SHP2 enzyme activity inhibition experiment; assay type: biochemical; details: SHP2 enzyme activity, Tables 1.1 and 1.2; read-out: IC50
Description: Compound powders were dissolved in DMSO to prepare mother liquor.
During the experiment, the stock solutions of the compounds were subjected to 3-fold gradient dilution with DMSO, and 10 different test concentrations of each compound were set. […] The protein used was the activated protein SHP^2E76A with amino acid mutation at position 76 of the protein, and the substrate used was DiFMUP (Invitrogen, E12020). […] 50 µL of enzyme solution was added to the detection wells, followed by 50 µL of substrate. […] GraphPad Prism 5 was used for nonlinear regression analysis, and the curve of enzyme activity versus compound concentration was fitted by the equation Y=Bottom+(Top-Bottom)/(1+10^((Log IC50−X)*HillSlope)) to calculate the IC50 value of each compound.

MOLM-13 cells = experiment: MOLM-13 cell proliferation experiment; assay type: cell-based; details: Homo sapiens, MOLM-13, 72 h, MOLM-13 cell proliferation, 3 days, Tables 3.1 and 3.2; read-out: IC50
Description: After 3 days, 5 µL of CellTiter-Glo reagent (Promega, ZG7572) was added to each well, and the plates were kept at room temperature in the dark for 10 minutes. The […] was detected by Spectra max i3 (Molecular Devices). The relative growth rate of the treated cells was compared with that of DMSO control.

Chain of SHP2^E76A protein (Q06124 whole entry E76A): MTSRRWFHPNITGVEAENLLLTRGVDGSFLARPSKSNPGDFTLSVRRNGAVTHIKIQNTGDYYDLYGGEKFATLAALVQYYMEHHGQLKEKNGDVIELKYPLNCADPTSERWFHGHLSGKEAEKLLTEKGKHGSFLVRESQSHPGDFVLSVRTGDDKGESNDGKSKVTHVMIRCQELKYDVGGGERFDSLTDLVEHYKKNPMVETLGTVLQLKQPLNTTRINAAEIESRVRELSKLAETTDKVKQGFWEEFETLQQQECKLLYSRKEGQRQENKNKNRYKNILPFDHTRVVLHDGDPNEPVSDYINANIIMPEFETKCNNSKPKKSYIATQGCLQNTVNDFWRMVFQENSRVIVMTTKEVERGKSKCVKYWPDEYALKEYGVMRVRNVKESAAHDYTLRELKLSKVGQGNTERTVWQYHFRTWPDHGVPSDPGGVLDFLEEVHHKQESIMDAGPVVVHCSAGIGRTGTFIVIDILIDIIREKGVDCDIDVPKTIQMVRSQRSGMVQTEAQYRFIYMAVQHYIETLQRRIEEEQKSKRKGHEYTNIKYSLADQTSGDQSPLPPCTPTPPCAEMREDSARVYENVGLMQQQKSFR

Structure (SMILES) | IC50 (SHP2^E76A protein) [nM] | IC50 (MOLM-13 cells) [nM]
NC1CCCCC12CCN(c1ncc(Sc3cccc(Cl)c3Cl)c3ncnn13)CC2 (centres unmarked) | 100 to 1000 | 1000 to 10000
C[C@@H]1OCC2(CCN(c3ncc(Sc4cc(N)ncc4Cl)c4nncn34)CC2)[C@@H]1N | < 100 | 1000 to 10000
C[C@@H]1OCC2(CCN(c3ncc(Sc4cc(N)ncc4Cl)c4nccn34)CC2)[C@@H]1N | – | 100 to 1000
N[C@@H]1CCCC12CCN(c1ncc(Sc3cccnc3Cl)c3ncnn13)CC2 | 100 to 1000 | 1000 to 10000
COc1ccccc1Sc1cnc(N2CCC3(CCC[C@H]3N)CC2)n2ncnc12 | – | 1000 to 10000
Cc1ncccc1Sc1cnc(N2CCC3(CCC[C@H]3N)CC2)n2cnnc12 | – | 1000 to 10000
Cc1ncccc1Sc1cnc(N2CCC3(CCC[C@H]3N)CC2)n2ccnc12 | – | 100 to 1000
CN(C)C(=O)C(=O)Nc1cccc(Sc2cnc(N3CCC4(CCC[C@H]4N)CC3)n3ccnc23)c1Cl | – | 100 to 1000
NC1CCCN(c2ncc(Sc3cccc(Cl)c3Cl)c3ncnn23)CC1 (centres unmarked) [1-(8-((2,3-dichlorophenyl)thio)-[1,2,4]triazolo[1,5-c]pyrimidin-5-yl)azepan-4-amine] | 100 to 1000 | 1000 to 10000
CC1(N)CCN(c2ncc(Sc3cccc(Cl)c3Cl)c3nccn23)CC1 [1-(8-((2,3-dichlorophenyl)thio)imidazo[1,2-c]pyrimidin-5-yl)-4-methylpiperidin-4-amine] | 100 to 1000 | 100 to 1000
NCC1(c2ccccc2)CCN(c2ncc(Sc3cccc(Cl)c3Cl)c3nncn23)CC1 [(1-(8-((2,3-dichlorophenyl)thio)-[1,2,4]triazolo[4,3-c]pyrimidin-5-yl)-4-phenylpiperidin-4-yl)methanamine] | < 100 | 100 to 1000
CC1(CN)CCN(c2ncc(Sc3cccc(Cl)c3Cl)c3nccn23)CC1 [(1-(8-((2,3-dichlorophenyl)thio)imidazo[1,2-c]pyrimidin-5-yl)-4-methylpiperidin-4-yl)methanamine] | < 100 | 100 to 1000
CC1C[C@@H](N)C2(CCN(c3ncc(Sc4ccnc(Cl)c4Cl)c4nncn34)CC2)C1 (stereo partly drawn) [(1R)-8-(8-((2,3-dichloropyridin-4-yl)thio)-[1,2,4]triazolo[4,3-c]pyrimidin-5-yl)-3-methyl-8-azaspiro[4.5]decan-1-amine] | < 100 | 100 to 1000
CC1C[C@@H](N)C2(CCN(c3ncc(Sc4ccnc(N)c4Cl)c4nncn34)CC2)C1 (stereo partly drawn) [(1R)-8-(8-((2-amino-3-chloropyridin-4-yl)thio)-[1,2,4]triazolo[4,3-c]pyrimidin-5-yl)-3-methyl-8-azaspiro[4.5]decan-1-amine] | < 100 | 100 to 1000
CC1C[C@@H](N)C2(CCN(c3ncc(Sc4cc(N)nc(Cl)c4Cl)c4nccn34)CC2)C1 (stereo partly drawn) [(1R)-8-(8-((6-amino-2,3-dichloropyridin-4-yl)thio)imidazo[1,2-c]pyrimidin-5-yl)-3-methyl-8-azaspiro[4.5]decan-1-amine] | < 100 | < 100
Cc1nccc(Sc2cnc(N3CCC4(CC3)CO[C@@H](C)[C@H]4N)n3ncnc23)c1Cl [(3S,4S)-8-(8-((3-chloro-2-methylpyridin-4-yl)thio)-[1,2,4]triazolo[1,5-c]pyrimidin-5-yl)-3-methyl-2-oxa-8-azaspiro[4.5]decan-4-amine] | 100 to 1000 | 1000 to 10000
C[C@@H]1OCC2(CCN(c3ncc(Sc4cc(N)nc(Cl)c4Cl)c4nncn34)CC2)[C@@H]1N [(3S,4S)-8-(8-((6-amino-2,3-dichloropyridin-4-yl)thio)-[1,2,4]triazolo[4,3-c]pyrimidin-5-yl)-3-methyl-2-oxa-8-azaspiro[4.5]decan-4-amine] | < 100 | 100 to 1000
N[C@@H]1CCCN(c2ncc(Sc3cccc(Cl)c3Cl)c3nncn23)CC1 [(R)-1-(8-((2,3-dichlorophenyl)thio)-[1,2,4]triazolo[4,3-c]pyrimidin-5-yl)azepan-4-amine] | 100 to 1000 | 1000 to 10000
N[C@@H]1CCCC12CCN(c1ncc(Sc3cccc(Cl)c3Cl)c3nncn13)CC2 [(R)-8-(8-((2,3-dichlorophenyl)thio)-[1,2,4]triazolo[4,3-c]pyrimidin-5-yl)-8-azaspiro[4.5]decan-1-amine] | < 100 | 100 to 1000
Cc1ncccc1Sc1cnc(N2CCC3(CCC[C@H]3N)CC2)n2ccnc12 [(R)-8-(8-((2-methylpyridin-3-yl)thio)imidazo[1,2-c]pyrimidin-5-yl)-8-azaspiro[4.5]decan-1-amine] | < 100 | –

Structure (SMILES) | IC50 (SHP2^E76A protein) [nM] | IC50 (MOLM-13 cells) [nM]
N[C@@H]1CCCC12CCN(c1ncc(Sc3ccncc3C(F)(F)F)c3ncnn13)CC2 [(R)-8-(8-((3-(trifluoromethyl)pyridin-4-yl)thio)-[1,2,4]triazolo[1,5-c]pyrimidin-5-yl)-8-azaspiro[4.5]decan-1-amine] | 1000 to 10000 | –
CN(C)c1nccc(Sc2cnc(N3CCC4(CCC[C@H]4N)CC3)n3cnnc23)c1Cl [(R)-8-(8-((3-chloro-2-(dimethylamino)pyridin-4-yl)thio)-[1,2,4]triazolo[4,3-c]pyrimidin-5-yl)-8-azaspiro[4.5]decan-1-amine] | 100 to 1000 | –
Nc1ccc(Sc2cnc(N3CCC4(CCC[C@H]4N)CC3)n3cnnc23)cc1 [(R)-8-(8-((4-aminophenyl)thio)-[1,2,4]triazolo[4,3-c]pyrimidin-5-yl)-8-azaspiro[4.5]decan-1-amine] | 1000 to 10000 | –
N[C@@H]1CCCC12CCN(c1ncc(Sc3ccc(Cl)cc3)c3nncn13)CC2 [(R)-8-(8-((4-chlorophenyl)thio)-[1,2,4]triazolo[4,3-c]pyrimidin-5-yl)-8-azaspiro[4.5]decan-1-amine] | 1000 to 10000 | –
Nc1ccc(Sc2cnc(N3CCC4(CCC[C@H]4N)CC3)n3ncnc23)c(Cl)n1 [(R)-8-(8-((6-amino-2-chloropyridin-3-yl)thio)-[1,2,4]triazolo[1,5-c]pyrimidin-5-yl)-8-azaspiro[4.5]decan-1-amine] | 1000 to 10000 | –
Nc1ccc(Sc2cnc(N3CCC4(CCC[C@H]4N)CC3)n3ccnc23)c(Cl)n1 [(R)-8-(8-((6-amino-2-chloropyridin-3-yl)thio)imidazo[1,2-c]pyrimidin-5-yl)-8-azaspiro[4.5]decan-1-amine] | < 100 | –
N[C@@H]1CCCC12CCN(c1ncc(Sc3cccc4ncsc34)c3nccn13)CC2 [(R)-8-(8-(benzo[d]thiazol-7-ylthio)imidazo[1,2-c]pyrimidin-5-yl)-8-azaspiro[4.5]decan-1-amine] | 100 to 1000 | –
N[C@@H]1CCCC12CCN(c1ncc(Sc3ccccc3)c3ncnn13)CC2 [(R)-8-(8-(phenylthio)-[1,2,4]triazolo[1,5-c]pyrimidin-5-yl)-8-azaspiro[4.5]decan-1-amine] | 1000 to 10000 | –
N[C@@H]1CCCC12CCN(c1ncc(Sc3ccccc3)c3nncn13)CC2 [(R)-8-(8-(phenylthio)-[1,2,4]triazolo[4,3-c]pyrimidin-5-yl)-8-azaspiro[4.5]decan-1-amine] | 1000 to 10000 | –
N[C@@H]1CCCC12CCN(c1ncc(Sc3ccccn3)c3nncn13)CC2 [(R)-8-(8-(pyridin-2-ylthio)-[1,2,4]triazolo[4,3-c]pyrimidin-5-yl)-8-azaspiro[4.5]decan-1-amine] | 1000 to 10000 | –
N[C@@H]1CCCC12CCN(c1ncc(Sc3cccnc3)c3ncnn13)CC2 [(R)-8-(8-(pyridin-3-ylthio)-[1,2,4]triazolo[1,5-c]pyrimidin-5-yl)-8-azaspiro[4.5]decan-1-amine] | 1000 to 10000 | –
N[C@@H]1CCCC12CCN(c1ncc(Sc3ccnc4ccccc34)c3nncn13)CC2 [(R)-8-(8-(quinolin-4-ylthio)-[1,2,4]triazolo[4,3-c]pyrimidin-5-yl)-8-azaspiro[4.5]decan-1-amine] | < 100 | –
CC(=O)Nc1ccc(Sc2cnc(N3CCC4(CCC[C@H]4N)CC3)n3cnnc23)cc1 [(R)-N-(4-((5-(1-amino-8-azaspiro[4.5]decan-8-yl)-[1,2,4]triazolo[4,3-c]pyrimidin-8-yl)thio)phenyl)acetamide] | 1000 to 10000 | –
N[C@H]1CCC12CCN(c1ncc(Sc3cccc(Cl)c3Cl)c3nncn13)CC2 [(S)-7-(8-((2,3-dichlorophenyl)thio)-[1,2,4]triazolo[4,3-c]pyrimidin-5-yl)-7-azaspiro[3.5]nonan-1-amine] | 1000 to 10000 | –
N[C@H]1CCCC12CCN(c1ncc(Sc3cccc(Cl)c3Cl)c3nncn13)CC2 [(S)-8-(8-((2,3-dichlorophenyl)thio)-[1,2,4]triazolo[4,3-c]pyrimidin-5-yl)-8-azaspiro[4.5]decan-1-amine] | 1000 to 10000 | –
Cc1nccc(Sc2cnc(N3CCC4(CC3)COC[C@H]4N)n3ncnc23)c1Cl [(S)-8-(8-((3-chloro-2-methylpyridin-4-yl)thio)-[1,2,4]triazolo[1,5-c]pyrimidin-5-yl)-2-oxa-8-azaspiro[4.5]decan-4-amine] | 1000 to 10000 | –
Cc1nccc(Sc2cnc(N3CCC4(CC3)COC[C@H]4N)n3cnnc23)c1Cl [(S)-8-(8-((3-chloro-2-methylpyridin-4-yl)thio)-[1,2,4]triazolo[4,3-c]pyrimidin-5-yl)-2-oxa-8-azaspiro[4.5]decan-4-amine] | – | 100 to 1000
COC(=O)c1ccccc1Sc1cnc(N2CCC3(CCC[C@H]3N)CC2)n2cnnc12 [Methyl (R)-2-((5-(1-amino-8-azaspiro[4.5]decan-8-yl)-[1,2,4]triazolo[4,3-c]pyrimidin-8-yl)thio)benzoate] | 1000 to 10000 | –
COC(=O)CCSc1cnc(N2CCC3(CCC[C@H]3N)CC2)n2cnnc12 [Methyl (R)-3-((5-(1-amino-8-azaspiro[4.5]decan-8-yl)-[1,2,4]triazolo[4,3-c]pyrimidin-8-yl)thio)propionate] | 1000 to 10000 | –
